Assay results reported in patent US12679878B2, “CRF2 receptor agonists and their use in therapy” (SANOFI, priority 2020, dated 2026).
Starred links: 1 amine or outer side, 2 acyl side, 3 side chain; linkers in the order of their positions; H or OH if unused. Non-standard residues stand in square brackets, D forms with d. Residues, ends and D or L forms follow the SMILES beside them. Groups on a side chain read outwards from the residue. *: point of attachment. C16 diacid = O=C(O)CCCCCCCCCCCCCCC(=O)*; γGlu = O=C(O)[C@H](CCC(=O)[*:2])N[*:1]; Palmitoyl = CCCCCCCCCCCCCCCC(=O)*; AEEA = NCCOCCOCC(=O)O; Aib = CC(C)(N)C(=O)O

Legend:
human CRF2α receptor = target: T1, human CRF2α receptor (Homo sapiens, UniProt Q13324); assay: cAMP agonism at human CRF2α receptor in TeloHEAC cells, FA modified peptides (Example 19.9); assay type: cell-based; details: 0% HSA, relative to urocortin 2
T1 construct: expressed in transfected cells; host or cells: TeloHEAC
T1 sequence (Q13324 1-411): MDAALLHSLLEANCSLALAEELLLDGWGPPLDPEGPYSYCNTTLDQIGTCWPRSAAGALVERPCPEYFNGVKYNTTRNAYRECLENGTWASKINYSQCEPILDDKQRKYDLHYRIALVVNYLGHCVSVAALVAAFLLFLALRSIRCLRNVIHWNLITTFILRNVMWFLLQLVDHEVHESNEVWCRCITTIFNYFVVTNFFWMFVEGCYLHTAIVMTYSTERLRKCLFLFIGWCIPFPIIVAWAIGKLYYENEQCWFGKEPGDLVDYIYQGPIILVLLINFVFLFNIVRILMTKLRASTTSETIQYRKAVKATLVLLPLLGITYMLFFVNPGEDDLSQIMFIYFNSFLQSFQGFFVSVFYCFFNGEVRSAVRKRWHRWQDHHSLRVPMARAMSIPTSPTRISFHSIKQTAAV
How it was run: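 Efficacy and EC50 are referenced to 100 nM urocortin 2 as 100%, with cAMP measured as the 665/620 nm HTRF ratio after 1 h at room temperature. Compounds (0.5 mM DMSO stock, 16 twofold dilutions) acted 30 min at 37 °C on CRF2α-expressing TeloHEAC cells, buffer containing IBMX and 0% or 0.2% HSA.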

CRF1R receptor = target: T2, CRF1R receptor (Homo sapiens, UniProt P34998); assay: cAMP activity at anti-target CRF1R, CHO-K1 cell line clone 2 (Example 19.10); assay type: cell-based; details: for EC50: 0% HSA, read-out: EC50 [nM] 0% HSA; for EC50 / Emax: CRF1R CHO-K1 clone 2; for Emax: 100% = Sauvagine at 100 nM
T2 construct: host or cells: CHO-K1 clone 2
T2 sequence (P34998 24-415): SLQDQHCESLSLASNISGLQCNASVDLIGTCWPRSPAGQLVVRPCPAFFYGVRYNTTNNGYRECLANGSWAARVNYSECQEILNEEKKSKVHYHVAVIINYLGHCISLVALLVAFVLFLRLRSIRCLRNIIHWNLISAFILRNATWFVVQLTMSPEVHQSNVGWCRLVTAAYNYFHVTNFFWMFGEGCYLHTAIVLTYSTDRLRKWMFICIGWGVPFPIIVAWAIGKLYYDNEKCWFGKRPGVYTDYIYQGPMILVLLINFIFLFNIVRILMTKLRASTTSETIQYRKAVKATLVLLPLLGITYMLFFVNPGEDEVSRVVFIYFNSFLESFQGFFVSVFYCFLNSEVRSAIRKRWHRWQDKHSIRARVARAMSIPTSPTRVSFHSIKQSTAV
How it was run: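 The cAMP read-out used the same protocol as the previous assay, except that Sauvagine at 100 nM set the 100% activation control. Cells were CHO-K1 clone 2 overexpressing CRF1R, cultured in F12 medium with 10% FBS and G418 and stored frozen until use.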

EC50 (human CRF2α receptor) [nM]	EC50 (CRF1R receptor) [nM]	Emax (CRF1R receptor) [%]	CRF1/CRF2 ratio (CRF1R receptor; ratio of CRF1 EC50 to CRF2 EC50)	Compound
8.7	> 100	1.9	–	CC[C@H](C)[C@H](N)C(=O)N[C@H](C(=O)N[C@@H](CC(C)C)C(=O)N[C@@H](CO)C(=O)N[C@@H](CC(C)C)C(=O)N[C@@H](CC(=O)O)C(=O)N[C@@H](C(=O)N1CCC[C@H]1C(=O)N[C@H](C(=O)N[C@@H](CCCCN)C(=O)N[C@@H](CC(C)C)C(=O)N[C@@H](CCCCNC(=O)COCCOCCNC(=O)COCCOCCNC(=O)CC[C@H](NC(=O)CCCCCCCCCCCCCCC(=O)O)C(=O)O)C(=O)N[C@@H](CCC(N)=O)C(=O)N[C@H](C(=O)N[C@@H](CC(C)C)C(=O)N[C@@H](CC(C)C)C(=O)N[C@@H](CCCCN)C(=O)N[C@@H](CCC(N)=O)C(=O)N[C@@H](CCC(=O)O)C(=O)N[C@@H](CCCNC(=N)N)C(=O)N[C@@H](CCC(N)=O)C(=O)N[C@@H](CCCCN)C(=O)N[C@@H](CCCCN)C(=O)NC(C)(C)C(=O)N[C@@H](CCCNC(=N)N)C(=O)N[C@@H](CCC(N)=O)C(=O)N[C@@H](CCCCN)C(=O)N[C@@H](C)C(=O)N[C@@H](CCC(=O)O)C(=O)N[C@@H](CCCCN)C(=O)N[C@@H](CC(N)=O)C(=O)N[C@@H](CCCCN)C(=O)N[C@@H](CCC(N)=O)C(=O)N[C@H](C(=O)N[C@@H](CC(C)C)C(=O)N[C@@H](C)C(=O)N[C@@H](CCC(N)=O)C(=O)N[C@H](C(N)=O)C(C)C)[C@@H](C)CC)[C@@H](C)CC)[C@@H](C)CC)C(C)C)C(C)C [compound 200] (H-IVLSLD[dV]PIKLK([AEEA-AEEA-γGlu-C16 diacid])QILLKQERQKK[Aib]RQKAEKNKQILAQV-NH2; N-terminus assumed)
4.66	> 100	-2.8	–	CC[C@H](C)[C@H](N)C(=O)N[C@H](C(=O)N[C@@H](CC(C)C)C(=O)N[C@@H](CO)C(=O)N[C@@H](CC(C)C)C(=O)N[C@@H](CC(=O)O)C(=O)N[C@@H](C(=O)N1CCC[C@H]1C(=O)N[C@H](C(=O)N[C@@H](CCCCN)C(=O)N[C@@H](CC(C)C)C(=O)N[C@@H](CCCCNC(=O)COCCOCCNC(=O)COCCOCCNC(=O)CC[C@H](NC(=O)CC[C@H](NC(=O)CCCCCCCCCCCCCCC(=O)O)C(=O)O)C(=O)O)C(=O)N[C@@H](CCC(N)=O)C(=O)N[C@H](C(=O)N[C@@H](CC(C)C)C(=O)N[C@@H](CC(C)C)C(=O)N[C@@H](CCCCN)C(=O)N[C@@H](CCC(N)=O)C(=O)N[C@@H](CCC(=O)O)C(=O)N[C@@H](CCCNC(=N)N)C(=O)N[C@@H](CCC(N)=O)C(=O)N[C@@H](CCCCN)C(=O)N[C@@H](CCCCN)C(=O)NC(C)(C)C(=O)N[C@@H](CCCNC(=N)N)C(=O)N[C@@H](CCC(N)=O)C(=O)N[C@@H](CCCCN)C(=O)N[C@@H](C)C(=O)N[C@@H](CCC(=O)O)C(=O)N[C@@H](CCCCN)C(=O)N[C@@H](CC(N)=O)C(=O)N[C@@H](CCCCN)C(=O)N[C@@H](CCC(N)=O)C(=O)N[C@H](C(=O)N[C@@H](CC(C)C)C(=O)N[C@@H](C)C(=O)N[C@@H](CCC(N)=O)C(=O)N[C@H](C(N)=O)C(C)C)[C@@H](C)CC)[C@@H](C)CC)[C@@H](C)CC)C(C)C)C(C)C [compound 201] (H-IVLSLD[dV]PIKLK([AEEA-AEEA-γGlu-γGlu-C16 diacid])QILLKQERQKK[Aib]RQKAEKNKQILAQV-NH2; N-terminus assumed)
0.87	> 100	5.4	–	CC[C@H](C)[C@H](N)C(=O)N[C@H](C(=O)N[C@@H](CC(C)C)C(=O)N[C@@H](CO)C(=O)N[C@@H](CC(C)C)C(=O)N[C@@H](CC(=O)O)C(=O)N[C@@H](C(=O)N1CCC[C@H]1C(=O)N[C@H](C(=O)NCC(=O)N[C@@H](CC(C)C)C(=O)N[C@@H](CCCCNC(=O)COCCOCCNC(=O)COCCOCCNC(=O)CC[C@H](NC(=O)CCCCCCCCCCCCCCC(=O)O)C(=O)O)C(=O)N[C@@H](CCC(N)=O)C(=O)N[C@H](C(=O)N[C@@H](CC(C)C)C(=O)N[C@@H](CC(C)C)C(=O)N[C@@H](CCCCN)C(=O)N[C@@H](CCC(N)=O)C(=O)N[C@@H](CCC(=O)O)C(=O)N[C@@H](CCCNC(=N)N)C(=O)N[C@@H](CCC(N)=O)C(=O)N[C@@H](CCCCN)C(=O)N[C@@H](CCCCN)C(=O)NC(C)(C)C(=O)N[C@@H](CCCNC(=N)N)C(=O)N[C@@H](CCC(=O)O)C(=O)N[C@@H](CCC(N)=O)C(=O)N[C@@H](C)C(=O)N[C@@H](CCC(=O)O)C(=O)N[C@H](C(=O)N[C@@H](CC(N)=O)C(=O)N[C@@H](CCCCN)C(=O)N[C@@H](CCC(N)=O)C(=O)N[C@H](C(=O)N[C@@H](CC(C)C)C(=O)N[C@@H](C)C(=O)N[C@@H](CCC(N)=O)C(=O)N[C@H](C(N)=O)C(C)C)[C@@H](C)CC)[C@@H](C)O)[C@@H](C)CC)[C@@H](C)CC)C(C)C)C(C)C [compound 202] (H-IVLSLD[dV]PIGLK([AEEA-AEEA-γGlu-C16 diacid])QILLKQERQKK[Aib]REQAETNKQILAQV-NH2; N-terminus assumed)
4.7	> 100	4.7	–	CC[C@H](C)[C@H](N)C(=O)N[C@H](C(=O)N[C@@H](CC(C)C)C(=O)N[C@@H](CO)C(=O)N[C@@H](CC(C)C)C(=O)N[C@@H](CC(=O)O)C(=O)N[C@@H](C(=O)N1CCC[C@H]1C(=O)N[C@H](C(=O)NCC(=O)N[C@@H](CC(C)C)C(=O)N[C@@H](CCCCNC(=O)COCCOCCNC(=O)COCCOCCNC(=O)CC[C@H](NC(=O)CC[C@H](NC(=O)CCCCCCCCCCCCCCC(=O)O)C(=O)O)C(=O)O)C(=O)N[C@@H](CCC(N)=O)C(=O)N[C@H](C(=O)N[C@@H](CC(C)C)C(=O)N[C@@H](CC(C)C)C(=O)N[C@@H](CCCCN)C(=O)N[C@@H](CCC(N)=O)C(=O)N[C@@H](CCC(=O)O)C(=O)N[C@@H](CCCNC(=N)N)C(=O)N[C@@H](CCC(N)=O)C(=O)N[C@@H](CCCCN)C(=O)N[C@@H](CCCCN)C(=O)NC(C)(C)C(=O)N[C@@H](CCCNC(=N)N)C(=O)N[C@@H](CCC(=O)O)C(=O)N[C@@H](CCC(N)=O)C(=O)N[C@@H](C)C(=O)N[C@@H](CCC(=O)O)C(=O)N[C@H](C(=O)N[C@@H](CC(N)=O)C(=O)N[C@@H](CCCCN)C(=O)N[C@@H](CCC(N)=O)C(=O)N[C@H](C(=O)N[C@@H](CC(C)C)C(=O)N[C@@H](C)C(=O)N[C@@H](CCC(N)=O)C(=O)N[C@H](C(N)=O)C(C)C)[C@@H](C)CC)[C@@H](C)O)[C@@H](C)CC)[C@@H](C)CC)C(C)C)C(C)C [compound 203] (H-IVLSLD[dV]PIGLK([AEEA-AEEA-γGlu-γGlu-C16 diacid])QILLKQERQKK[Aib]REQAETNKQILAQV-NH2; N-terminus assumed)
0.14	–	–	3	CCCCCCCCCCCCCCCC(=O)N[C@@H](CCC(=O)NCCCC[C@H](NC(=O)[C@H](CC(C)C)NC(=O)[C@H](CCCCN)NC(=O)[C@@H](NC(=O)[C@@H]1CCCN1C(=O)[C@H](NC(=O)[C@H](CC(=O)O)NC(=O)[C@H](CC(C)C)NC(=O)[C@H](CO)NC(=O)[C@H](CC(C)C)NC(=O)[C@@H](NC(=O)[C@@H](N)[C@@H](C)CC)C(C)C)C(C)C)[C@@H](C)CC)C(=O)N[C@@H](CCC(N)=O)C(=O)N[C@H](C(=O)N[C@@H](CC(C)C)C(=O)N[C@@H](CC(C)C)C(=O)N[C@@H](CCCCN)C(=O)N[C@@H](CCC(N)=O)C(=O)N[C@@H](CCC(=O)O)C(=O)N[C@@H](CCCNC(=N)N)C(=O)N[C@@H](CCC(N)=O)C(=O)N[C@@H](CCCCN)C(=O)NC(C)(C)C(=O)N[C@@H](CCC(N)=O)C(=O)N[C@@H](CCCNC(=N)N)C(=O)N[C@@H](CCC(=O)O)C(=O)N[C@@H](CCC(N)=O)C(=O)N[C@@H](C)C(=O)N[C@@H](CCC(=O)O)C(=O)N[C@@H](CCCCN)C(=O)N[C@@H](CC(N)=O)C(=O)N[C@@H](CCCCN)C(=O)N[C@@H](CCC(N)=O)C(=O)N[C@H](C(=O)N[C@@H](CC(C)C)C(=O)N[C@@H](C)C(=O)N[C@@H](CCC(N)=O)C(=O)N[C@H](C(N)=O)C(C)C)[C@@H](C)CC)[C@@H](C)CC)C(=O)O [compound 204] (H-IVLSLD[dV]PIKLK([γGlu-Palmitoyl])QILLKQERQK[Aib]QREQAEKNKQILAQV-NH2)
